We go through two compounds from article PMC6558205 (Frontiers in Pharmacology, 2019).

The target in series [1] is T1, human long isoform of D2 receptor (D2LR) (Homo sapiens, UniProt P14416).
T1 construct: expressed in transfected cells; host or cells: HEK293T
As to the kind of experiment: Estimation of functional selectivity between Gi and β-arr2 pathways (ratios of Ki, Imax, Imax/Ki). It is filed as cell-based. An excerpt: (§1) Then, for every compound, we calculate the ratios of their K i and I max values for the two pathways.

Series [2] is described as follows: Solubility limit seen in inhibition curves. It is filed as physicochemical. To be noted: complete inhibition curves not obtained in Gi antagonism assay.
The target of series [3] is T1, human long isoform of D2 receptor (D2LR). As to the kind of experiment: BRET assay of inhibition of dopamine-induced Gi activation in HEK-293T cells. It is filed as cell-based. To be noted: 100 nM dopamine; for Ki: Ki (nM) (95% CI), apparent affinity, IC50 corrected by Cheng–Prusoff, HEK-293T; for I max for inhibition of the dopamine effect on Gi: text summary over 5 and 20 min.
Source text: as §1

The target is the same in series [4]. Nature of the series: ebBRET assay of inhibition of dopamine-induced β-arrestin-2 translocation in HEK-293T cells. The class given is cell-based. The conditions noted are these: 10 µM dopamine; for Ki: Ki (nM) (95% CI), apparent affinity, IC50 corrected by Cheng–Prusoff, HEK-293T.
Source text: as §1

For series [5] the target is unchanged. As to the kind of experiment: BRET assay of Gi activation, agonistic effect at the D2R canonical pathway, in HEK-293T cells. It is filed as cell-based. The conditions noted are these: BRET signal after 5 min stimulation, decrease = activation.
Method: HEK293T cells were cultured in Dulbecco’s modified eagle medium (DMEM) supplemented with 10% fetal bovine serum and 100 U/mL penicillin/streptomycin at 37°C in 5% CO2. Forty-eight hours before the experiments, cells were transfected in suspension, using polyethylenimine (PEI; 25 kDa linear; Polysciences, Warrington, PA, USA) at a ratio of 3:1 PEI/DNA, and directly seeded in 96-well white plates (OptiPlate; PerkinElmer) at a density of 4 × 10^4 cells/well and at 37°C in 5% CO2. When needed, total DNA amount was adjusted with salmon sperm DNA (Invitrogen, Carlsbad, CA, USA).

T1 sequence (P14416 whole entry, canonical isoform): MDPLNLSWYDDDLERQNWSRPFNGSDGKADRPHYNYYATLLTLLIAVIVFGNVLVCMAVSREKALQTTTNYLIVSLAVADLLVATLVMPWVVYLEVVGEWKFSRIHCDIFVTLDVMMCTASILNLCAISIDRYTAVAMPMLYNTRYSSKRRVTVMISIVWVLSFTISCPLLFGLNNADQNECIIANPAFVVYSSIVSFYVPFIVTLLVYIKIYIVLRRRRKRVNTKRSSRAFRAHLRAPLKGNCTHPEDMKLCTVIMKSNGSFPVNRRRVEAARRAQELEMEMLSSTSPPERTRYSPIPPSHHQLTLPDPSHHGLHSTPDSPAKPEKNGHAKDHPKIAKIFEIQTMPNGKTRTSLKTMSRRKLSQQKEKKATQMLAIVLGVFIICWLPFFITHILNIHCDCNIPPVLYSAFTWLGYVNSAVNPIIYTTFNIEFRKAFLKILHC

Consider `Clc1ccc(-n2cc(CN3CCN(c4ccccc4)CC3)cn2)cc1` [LASSBio-579, 1-((1-(4-chlorophenyl)-1H-pyrazol-4-yl)methyl)-4-phenylpiperazine], for which the entries for the “Imax (Gi)/Imax (β-arr)” value in series [1] (5 min) and in series [1] (20 min) were 0.51 and 0.56, respectively. Also, the “Ki (Gi)/Ki (β-arr)” value is recorded as 1.08 in series [1] (5 min) and 1.60 in series [1] (20 min). In addition, the Solubility entry in series [2] is “lack of solubility at higher concentrations”. The “I max (% dopamine effect) ± S.E.M., 5 min Gi” value in series [3] (5 min) was determined as 75.1 ± 16.3 % dopamine effect. The “I max (% dopamine effect) ± S.E.M., 20 min Gi” value in series [3] (20 min) is listed as 72.4 ± 9.8 % dopamine effect. Besides, the Ki turned out to be 118 nM in series [3] (5 min Gi, 5 min); 66.7 nM in series [3] (20 min Gi, 20 min); 109 nM in series [4] (5 min β-arr, 5 min); 41.6 nM in series [4] (20 min β-arr, 20 min). In addition, the “I max for inhibition of the dopamine effect on Gi” value in series [3] is on record as 70–80%. The “I max (% dopamine effect) ± S.E.M., 5 min β-arr” value in series [4] (5 min) was 148 ± 20 % dopamine effect. Moreover, the “I max (% dopamine effect) ± S.E.M., 20 min β-arr” value in series [4] (20 min) was found to be 129 ± 12 % dopamine effect. In addition, the “E max for Gi activation (change in BRET signal)” value in series [5] is given as −0.07.
For the compound `Oc1ccc(N2CCN(Cc3cnn(-c4ccc(Cl)cc4)c3)CC2)cc1` [LQFM 037], the “Imax (Gi)/Imax (β-arr)” value was 1.11 in series [1] (5 min) and 0.76 in series [1] (20 min). The “Ki (Gi)/Ki (β-arr)” value in series [1] (5 min) is listed as 0.74; in series [1] (20 min) it was 0.91. For the same compound, the Solubility entry in series [2] is on record as “lack of solubility at higher concentrations”. In addition, in series [3] (5 min), the “I max (% dopamine effect) ± S.E.M., 5 min Gi” value is 78.9 ± 19.2 % dopamine effect. Further, the “I max (% dopamine effect) ± S.E.M., 20 min Gi” value in series [3] (20 min) worked out at 71.6 ± 13.7 % dopamine effect. Moreover, the Ki in series [3] (5 min Gi, 5 min) was 263 nM; in series [3] (20 min Gi, 20 min), 190 nM; in series [4] (5 min β-arr, 5 min), 353 nM; in series [4] (20 min β-arr, 20 min), 209 nM. In series [3], the “I max for inhibition of the dopamine effect on Gi” value was 70–80%. The “I max (% dopamine effect) ± S.E.M., 5 min β-arr” value in series [4] (5 min) is 71.3 ± 12.3 % dopamine effect. Further, the “I max (% dopamine effect) ± S.E.M., 20 min β-arr” value in series [4] (20 min) was determined as 94.2 ± 7.4 % dopamine effect. In series [5], the “E max for Gi activation (change in BRET signal)” value is on record as −0.04.
